From the NIST ThermoML archive (doi:10.1021/je025649t)
Numbers after ± are expanded uncertainties.

Assays:
[1] = xn = mol fraction of the nth substance listed; conditions: 298.15 K, 101 kPa, Liquid, Vibrating tube method
[2] = heat capacity at constant pressure per volume; xn = mol fraction of the nth substance listed; conditions: 298.15 K, 101 kPa, Liquid, Flow calorimetry
[3] = excess molar enthalpy (molar enthalpy of mixing); xn = mol fraction of the nth substance listed; conditions: 298.15 K, 101 kPa, Liquid, Flow calorimetry
[4] = refractive index (Na D-line) (dimensionless); xn = mol fraction of the nth substance listed; conditions: 298.15 K, 101 kPa, Liquid, refractometer

O=C1CCCC1 [cyclopentanone] + C1CCOCC1
Conditions	excess molar enthalpy [kcal/mol]	heat capacity [J/K/m3]	mass density [kg/m3]	refractive index
[1], x2 = 0.0621	–	–	939.88 ± 0.48	–
[1], x2 = 0.1532	–	–	933.66 ± 0.48	–
[1], x2 = 0.2354	–	–	928.1 ± 0.48	–
[1], x2 = 0.309	–	–	923.12 ± 0.47	–
[1], x2 = 0.3167	–	–	922.64 ± 0.47	–
[1], x2 = 0.346	–	–	920.67 ± 0.47	–
[1], x2 = 0.3516	–	–	920.32 ± 0.47	–
[1], x2 = 0.3936	–	–	917.52 ± 0.47	–
[1], x2 = 0.3997	–	–	917.16 ± 0.47	–
[1], x2 = 0.4297	–	–	915.15 ± 0.47	–
[1], x2 = 0.4312	–	–	915.07 ± 0.47	–
[1], x2 = 0.4661	–	–	912.74 ± 0.47	–
[1], x2 = 0.4676	–	–	912.7 ± 0.47	–
[1], x2 = 0.5105	–	–	909.9 ± 0.47	–
[1], x2 = 0.5187	–	–	909.32 ± 0.47	–
[1], x2 = 0.5466	–	–	907.55 ± 0.47	–
[1], x2 = 0.5498	–	–	907.3 ± 0.47	–
[1], x2 = 0.5959	–	–	904.37 ± 0.46	–
[1], x2 = 0.6289	–	–	902.25 ± 0.46	–
[1], x2 = 0.6335	–	–	901.96 ± 0.46	–
[1], x2 = 0.6618	–	–	900.16 ± 0.46	–
[1], x2 = 0.708	–	–	897.22 ± 0.46	–
[1], x2 = 0.7941	–	–	891.79 ± 0.46	–
[1], x2 = 0.8569	–	–	887.85 ± 0.46	–
[1], x2 = 0.9351	–	–	882.98 ± 0.45	–
[1], x2 = 0.939	–	–	882.71 ± 0.45	–
[2], x2 = 0.0715	–	1697900 ± 2600	–	–
[2], x2 = 0.1485	–	1683000 ± 2600	–	–
[2], x2 = 0.2279	–	1667700 ± 2600	–	–
[2], x2 = 0.3826	–	1638300 ± 2500	–	–
[2], x2 = 0.4613	–	1623300 ± 2500	–	–
[2], x2 = 0.5422	–	1608000 ± 2500	–	–
[2], x2 = 0.6258	–	1592400 ± 2500	–	–
[2], x2 = 0.6965	–	1579400 ± 2400	–	–
[2], x2 = 0.777	–	1564600 ± 2400	–	–
[2], x2 = 0.8588	–	1549700 ± 2400	–	–
[2], x2 = 0.9378	–	1535300 ± 2400	–	–
[3], x2 = 0.1	0.0127 ± 0.000311	–	–	–
[3], x2 = 0.15	0.0181 ± 0.000335	–	–	–
[3], x2 = 0.2	0.023 ± 0.000382	–	–	–
[3], x2 = 0.25	0.0271 ± 0.000406	–	–	–
[3], x2 = 0.3	0.0304 ± 0.00043	–	–	–
[3], x2 = 0.35	0.0331 ± 0.000454	–	–	–
[3], x2 = 0.4	0.0353 ± 0.000454	–	–	–
[3], x2 = 0.45	0.0368 ± 0.000478	–	–	–
[3], x2 = 0.5	0.0377 ± 0.000478	–	–	–
[3], x2 = 0.55	0.0378 ± 0.000478	–	–	–
[3], x2 = 0.6	0.0371 ± 0.000478	–	–	–
[3], x2 = 0.65	0.0357 ± 0.000454	–	–	–
[3], x2 = 0.7	0.0336 ± 0.000454	–	–	–
[3], x2 = 0.75	0.0306 ± 0.00043	–	–	–
[3], x2 = 0.8	0.0267 ± 0.000406	–	–	–
[3], x2 = 0.85	0.0219 ± 0.000382	–	–	–
[3], x2 = 0.9	0.0158 ± 0.000335	–	–	–
[4], x2 = 0.0723	–	–	–	1.4337 ± 0.00021
[4], x2 = 0.153	–	–	–	1.43231 ± 0.00021
[4], x2 = 0.2311	–	–	–	1.43098 ± 0.00021
[4], x2 = 0.3083	–	–	–	1.42967 ± 0.00021
[4], x2 = 0.3514	–	–	–	1.42895 ± 0.00021
[4], x2 = 0.3917	–	–	–	1.42828 ± 0.00021
[4], x2 = 0.4314	–	–	–	1.42762 ± 0.00021
[4], x2 = 0.4691	–	–	–	1.427 ± 0.00021
[4], x2 = 0.5026	–	–	–	1.42645 ± 0.00021
[4], x2 = 0.5485	–	–	–	1.42571 ± 0.00021
[4], x2 = 0.5911	–	–	–	1.42502 ± 0.00021
[4], x2 = 0.6215	–	–	–	1.42454 ± 0.00021
[4], x2 = 0.6618	–	–	–	1.4239 ± 0.00021
[4], x2 = 0.7097	–	–	–	1.42314 ± 0.00021
[4], x2 = 0.7897	–	–	–	1.42189 ± 0.00021
[4], x2 = 0.8648	–	–	–	1.42073 ± 0.00021
[4], x2 = 0.9456	–	–	–	1.41948 ± 0.00021
